Assays:
[1] = system: BCCI injury to the medial frontal cortex; experiment: Bilateral controlled cortical impact (BCCI) injury in rats; assay type: in vivo
Description: Bilateral controlled cortical impact (BCCI) injury to the medial frontal cortex (MFC) of male Sprague Dawley rats was induced by a cortical contusion device. After CCI any cortical surface hemorrhaging was controlled, and the fascia and scalp were sutured. Sham-operated rats were anesthetized, mounted in the stereotaxic apparatus, and a craniotomy was performed.
Progesterone 16 mg/mL was dissolved in 22.5% 2-hydroxypropyl-β-cyclodextrin and the initial injection (16 mg/kg) was given i.p. 1 h after injury. The remaining injections (all 16 mg/kg) were given subcutaneously at 6 h post-injury and continued for 5 days after injury. Progesterone injections were made at a concentration of 1 mL/kg. Progesterone was used as a control.
Compound 1 0.2, 0.4, and 0.6 mg/mL was suspended in vehicle (0.6% w/v Pluronic® F-68 and 0.6% w/v PVP K-29/32 in water) and administered p.o at a concentration of 10 mL/kg, 16 h before injury and 2 h after injury, and administrations were continued for 4 days. Control rats received equivalent injections of the vehicle for Compound 1, at the same time points.
The Morris Water Maze (MWM) test is a spatial navigation task that measures learning and memory in rodents using visual cues. Subjects learn over the course of days to find a hidden platform. A MWM test was conducted two weeks after injury. Male Sprague Dawley rats were allowed to swim in the pool until they reached the platform located in the southwest quadrant of a tank, or until 90 seconds had elapsed. Behavior was tracked by a video camera hanging from above the pool and recorded and analyzed using video track software (ANY-maze).
The expression level of several cytokines in plasma harvested from rats in each treatment group was measured. The samples were received frozen and stored at −80° C. On the day of the experiment, the samples were thawed, diluted four-fold, and analyzed for cytokine expression on a Luminex platform. The samples were analyzed for the cytokines GRO/KC, IFNy, IL-1B, IL-6, IL-10, IL-12p70 and TNFa, using a multipliex kit manufactured by Millipore. […] The biggest change was in IL-10.
Quantitative measures of cell density were collected from anti-NeuN immunolabeled subsections from approximately 2-3 mm anterior to bregma. Regions of interest (ROIs) were drawn (blind to experimental condition) around Layers IV-VI in the cortical region adjacent to the injury site in CCI-treated animals or in the equivalent zone (dorsal cortex) in sham animals. An ROI of similar area was also evaluated in a ventral cortical region of the same section. Cell identification was performed using the cell counting module of Keyence BZ-II Analyzer software. Cell-to-gray matter (CG) area coefficients were determined for each ROI. […] The CCI-induced reduction in CG coefficient was mitigated by treatment with Compound 1 in the ventral cortex (−3% compared to sham; p=0.09). Although the effect of Compound 1 versus vehicle treatment in the ventral cortex is not statistically significant, it is anticipated that this effect would breach statistical significance in a larger study. No effect of Compound 1 was detected in the dorsal cortical region (−32% compared to sham) immediately adjacent to the injury site. The difference in the observed effect of Compound 1 on the ventral region versus the dorsal region may be a threshold effect related to the degree of injury, which was inversely related to the distance from the injury site. Thus, the damage to the dorsal cortical region could be too severe to be rescued by Compound 1 under these conditions.
Immunofluorescence was performed to evaluate the impact of TBI on several pathways of immune response, and to determine if Compound 1 might be mediating its neuroprotective effects via one or more of those pathways. […]

[2] = system: PMA-induced psoriasis; experiment: PMA-induced psoriasis in female BALB/c mice; assay type: in vivo; settings: 10 μM topical, daily
Description: Twenty-four (24) female BALB/c mice, aged 6 to 8 weeks with a body weight between 22 and 30 g were used. The mice were randomized into […]. The grouping of animals was as follows: Group I (Naïve; ethanol), Group II (PMA; ethanol), Group III (PMA; […] Twenty (20) μL of PMA (4 μg/20 μL of acetone) was applied topically on the upper surface of pinna of ear of all animals in Group II to Group IV. PMA was applied daily on left ear and on alternate days (M-W-F) on right ear from Day 1 to Day 9. Thirty (30) minutes after application of PMA, vehicle or standard compound (betamethasone) or Compound 2 was applied topically to the ears of animals from different groups. […] Animals were observed daily for a period of 12 days for any treatment related symptoms. Basal ear thickness was recorded in all animals (before application of PMA) using digital screw gauge at time T0 (Day 1). […] Commercially available 100% DMSO (LR Grade) and ethanol (LR Grade) were used to prepare the formulations. PMA was prepared by dissolving 10 mg of PMA in 50.0 mL of acetone. Compound 2 was prepared by dissolving 1.47 mg of Compound 2 in 300 μL of 100% DMSO.

SMILES | plasma IL-10 ([1]; 6 mg/kg) | qualitative visual inspection of whole brains (damage to dorsal-medial cortical tissue) ([1]; 6 mg/kg) | latency to find the hidden platform (MWM test), significance ([1]; 6 mg/kg p.o.) | latency to find the hidden platform (MWM test) compared to vehicle-treated BCCI-injured rats ([1]; 2, 4 and 6 mg/kg p.o.) | cell-to-gray matter (CG) coefficient, NeuN labeling, compared to sham ([1]; dorsal cortical region adjacent to the injury site) [%] | TNFα immunopositive cells in tissue surrounding the injury site ([1]; immunofluorescence) | secondary injury responses (Rat IgG and TNFα labeling) ([1]; immunofluorescence) | cell-to-gray matter (CG) coefficient, NeuN labeling, compared to sham ([1]; ventral cortex) [%] | anti-psoriatic activity [2] | left and right ear disease activity index (DAI) [2] | left and right ear thickness [2]
CC(C)(C)C(=O)NNC(=O)/C=C\n1cnc(-c2cc(C(F)(F)F)cc(C(F)(F)F)c2)n1 [Compound 1, (Z)-3-(3-(3,5-bis(trifluoromethyl)phenyl)-1H-1,2,4-triazol-1-yl)-N′-pivaloylacrylohydrazide] | reduced IL-10 compared to vehicle-treated control group | damage ranging from moderate to minimal | significant effects on days 17 and 18 after injury with 6 mg/kg | dose dependent decrease in the latency to find the hidden platform | −32 | largely absent | reduces secondary injury responses | −3 |  |  | 
O=C(/C=C\n1cnc(-c2cc(C(F)(F)F)cc(C(F)(F)F)c2)n1)NNC(=O)CN1CCOCC1 [Compound 2, (Z)-3-(3-(3,5-bis(trifluoromethyl)phenyl)-1H-1,2,4-triazol-1-yl)-N′-(2-morpholinoacetyl)acrylohydrazide] |  |  |  |  |  |  |  |  | statistically significant anti-psoriatic activity | prominent reduction in PMA-induced increases | prominent reduction in PMA-induced increases

From patent US10617677B2, “Nuclear transport modulators and uses thereof” (Biogen MA Inc., priority 2012, dated 2020)
